79 compounds from publication PMC12040169 (PLOS Biology, 2025) can be followed below.

A short description of this data set: in vitro. To be noted: human, hela cells, % viability.

As for `O=C(N[C@H]1C2CCCCC2[C@@H]1c1ccccc1)c1cncnc1` (stereo partly shown) [CBK282949], the viability at 28.5 h, 10 µM was found to be 94.3%. The same measure, in the same setting: under `O=[N+]([O-])c1ccc2c(c1)oc1ccc(S(=O)(=O)N3CCCC3)cc12` [CBK268512] stands 107%; under `O=c1ccc2cc(S(=O)(=O)Nc3ncc(Br)c4cccnc34)ccc2o1` [CBK073887], 94%. On the same count and under the same terms, under `C[C@H](NC1=NC(=O)[C@@](C)(C(C)(C)O)S1)c1ccc(F)cc1` [CBK138436] stands 98.1%; under `Brc1cnc(-n2cnc3ccccc32)nc1` [CBK288546], 84.2%; under `O=C1CN(C(=O)Nc2ccc3[nH]ccc3c2)CCN1` [CBK155858], 87%. Same read-out and setting: under `CCCCOc1nccnc1-c1cnn(C)c1` [CBK107085] stands 92.8%; under `COc1ccc(-c2oc3ncn4nc(COc5ccccc5C)nc4c3c2-c2ccc(OC)cc2)cc1` [CBK265283], 94.8%.

For `COC(=O)C(CC(=O)c1ccc(Br)cc1)n1cccn1` (stereo not shown) [CBK269338], the viability at 28.5 h, 10 µM came out at 104%. As for `CCn1c(SCC(N)=O)nnc1C(C)Oc1ccc(C)c(C)c1` (stereo not shown) [CBK270289], the viability at 28.5 h, 10 µM came to 88.4%.

For `O=C(O)c1ccc(C(=O)O)c2c(-c3ccc(C(=O)O)c4c(C(=O)O)ccc(C(=O)O)c34)ccc(C(=O)O)c12` [CBK261267], the viability at 28.5 h, 10 µM was 98.4%. On to `CCOC(=O)CNc1nc(OC)cc(OC)n1` [CBK093392], for which the viability at 28.5 h, 10 µM was found to be 86.7%. For `CCCCN(CCCC)S(=O)(=O)c1nc2nc(C)cc(C)n2n1` [CBK022076], the viability at 28.5 h, 10 µM was 79.7%. In the case of `COc1ccc(C(=O)N2CCC3(CCCN(C(=O)c4ccc5[nH]c(=O)[nH]c5c4)C3)C2)cc1OC` (stereo not shown) [CBK137086], the viability at 28.5 h, 10 µM came to 98.5%. For the compound `Cc1c[nH]c(CN(C)C(=O)c2cccc(NC(=O)C3CCCC3)c2)n1` [CBK307282], the viability at 28.5 h, 10 µM amounted to 91.4%. On to `CCn1c(C)nc2cc(NC(=O)c3ccc(CN(C)C)cc3)ccc21` [CBK281880], for which the viability at 28.5 h, 10 µM stood at 106%.

Consider `Cc1ccc(S(N)(=O)=O)cc1C(=O)OCC(=O)c1ccccc1` [CBK264588], for which the viability at 28.5 h, 10 µM worked out at 113%. Take `O=C(CC1Nc2cccc3cccc(c23)NC1=O)Nc1ccccc1` (stereo not shown) [CBK268035]: the viability at 28.5 h, 10 µM turned out to be 87.2%. Turning to `Cc1nc(-c2ccco2)nc2sc(C(=O)N(C)CC3COc4ccccc4O3)c(C)c12` (stereo not shown) [CBK295347], the viability at 28.5 h, 10 µM amounted to 105%. On the same count and under the same terms, the same measure for `Cn1ccnc1C1(O)C2CCCC1CN(CC1CCCCC1)C2` (stereo not shown) [CBK285220]: 91.5%.

Take `CC(C)C(N)c1nnc(SCc2ccccc2Cl)o1` (stereo not shown) [CBK270121C]: the viability at 28.5 h, 10 µM was found to be 92%. Consider `CC(Oc1ccc(F)cc1)C(=O)NCCN1CCOCC1` (stereo not shown) [CBK265508], for which the viability at 28.5 h, 10 µM was found to be 99.4%. The same measure, in the same setting: the same measure for `O=C(CCCn1cccn1)N1CCCN(Cc2ccc(F)cc2)CC1` [CBK304641]: 99.7%; for `O=C(CCn1c(C(F)F)cc2cccnc21)NCc1cccnc1` [CBK285066]: 91.9%; for `O=C1CN(c2ccccc2)C(=O)N1c1ccccc1` [CBK116496]: 98.2%. As for `OC(Cn1c(Cc2ccccc2)nc2ccccc21)Cn1c2ccccc2c2ccccc21` (stereo not shown) [CBK262570], the viability at 28.5 h, 10 µM was 95.2%. In the case of `Cc1ccc(CC(=O)N2CC(=O)Nc3ccccc32)cc1` [CBK287670], the viability at 28.5 h, 10 µM came out at 86.2%. For the compound `O=C(O)CN(c1ccc2c(c1)OCCO2)S(=O)(=O)c1ccccc1` [CBK268017], the viability at 28.5 h, 10 µM worked out at 115%. On the same count and under the same terms, under `O=C(O)C1C2CC(c3ccccc3)C(C2)C1C(=O)O` (stereo not shown) [CBK287147] stands 95.7%. Still for that read-out and setting: the same measure for `O=C1N[C@]2(CCc3ccccc31)CN(CC1CC=CCC1)C[C@H]2CO` (stereo partly shown) [CBK284794]: 96%; for `Cn1ncc2c(=O)n(Cc3noc(-c4ccco4)n3)cnc21` [CBK305053]: 97.1%. On to `Cn1cc(-c2ncc(OCCc3c[nH]c4ccccc34)nc2N)cn1` [CBK145166], for which the viability at 28.5 h, 10 µM came out at 88.3%.

Regarding `O=C1NC(=O)N(Cc2ccccc2)C(=O)/C1=C\NC(CO)(CO)CO` [CBK264431], for the setting “bulk resorufin, single well”, the viability at 28.5 h, 10 µM was 104%. Consider `COc1ccc(S(=O)(=O)Nc2ccc(C(=O)O)c(O)c2)cc1[N+](=O)[O-]` [CBK299771], for which the viability at 28.5 h, 10 µM came to 95.7%. As for `Cc1cccc(C(=O)N2CCCCC2CN(C)C)c1` (stereo not shown) [CBK074171], the viability at 28.5 h, 10 µM was determined as 81.7%. For `COc1cccc(C(=O)NNC(=O)c2ccc(F)cc2)c1` [CBK261705], the viability at 28.5 h, 10 µM amounted to 106%. Regarding `COc1cccc2c3c([nH]c12)C1(CCCN(C/C=C\c2ccccc2)C1)NCC3` (stereo not shown) [CBK040138], the viability at 28.5 h, 10 µM was found to be 98.3%. Still for that read-out and setting: under `O=C(NCC(O)c1ccc(O)cc1)c1cnc(-c2ccc(Cl)cc2)c(-c2cccnc2)c1` (stereo not shown) [CBK036656] stands 92.5%; under `COCCNC(=O)c1ccc(-c2ccccc2OC)nc1N(C)C` [CBK106052], 92%. `COc1ccc(OC(=O)c2ccc3ncccc3c2)cc1` [CBK083572]: the viability at 28.5 h, 10 µM came out at 96.3%.

For `CC(C)(C)c1ccc(C(O)CN2CCC(O)(c3ccc4c(c3)OCO4)CC2)cc1` (stereo not shown) [CBK286336], the viability at 28.5 h, 10 µM was 89.3%.

For the compound `N=c1c2c(-c3ccccc3)c(-c3ccccc3)n(Cc3ccco3)c2ncn1CCN1CCOCC1` [CBK268545], the viability at 28.5 h, 10 µM turned out to be 93.5%.

Take `CCc1nc2ccc(C(=O)NCCCN3CCCC3=O)cn2c1N(C)Cc1cccs1` [CBK145536]: the viability at 28.5 h, 10 µM came to 95%. On the same count and under the same terms, the same measure for `Cc1cccc(/C(C#N)=C\c2cn(CC(=O)O)c3ccccc23)c1` [CBK269457]: 110%; for `O=C(CN1CCCC1c1cccs1)Nc1cccc(C(=O)NC2CC2)c1` (stereo not shown) [CBK305895]: 98.5%.

Regarding `CCOC(=O)c1cnc(C2CC2)nc1NCc1cccc(C)c1C` [CBK114707], the viability at 28.5 h, 10 µM stood at 102%. On the same count and under the same terms, under `Nc1ncnc2c1C(c1ccc(Cl)cc1)c1c(ccc3ccccc13)O2` (stereo not shown) [CBK263938] stands 101%; under `COc1ccc(CNC(=O)NC(=O)C2CCN(CCc3c[nH]c4ccccc34)CC2)c(OC)c1` [CBK034864], 90%; under `O=C(c1cccs1)[C@H]1CCCN(C(=O)c2cc(C3CC3)n[nH]2)C1` [CBK282411], 85.3%. Still for that read-out and setting: the same measure for `O=C(CN1CCCCC1)Nc1c(-c2ccccc2)c2cc(Br)ccc2[nH]c1=O` [CBK263351]: 94.7%; for `O=S(=O)(Nc1nc2c(s1)CCCC2)c1cc(Cl)ccc1Cl` [CBK096578]: 98.7%. Still for that read-out and setting: under `O=C(CCN1CCN(CCO)CC1)Nc1ccc2c(c1)CCC2` [CBK264262C] stands 93.2%. As for `COc1cccc(NC(=O)CCn2ncc(Cl)c2C)c1` [CBK288012], the viability at 28.5 h, 10 µM was determined as 94.9%.

As to `CC(C)(C)c1cn(C[C@H]2CC3CCN2C[C@@H]3C(=O)NC2CCCCC2)nn1` (stereo partly shown) [CBK289085], the viability at 28.5 h, 10 µM amounted to 83.9%. Regarding `CN(CC1(C)COC1)C(=O)Cc1cccc2cccnc12` [CBK281963], the viability at 28.5 h, 10 µM amounted to 91.7%. For the compound `O=C(NCc1sccc1Cl)Nc1cccc(Cl)c1` [CBK057110], the viability at 28.5 h, 10 µM amounted to 92.4%. Still for that read-out and setting: the same measure for `O=C1CCC(CNS(=O)(=O)c2ccccc2Cl)N1` (stereo not shown) [CBK304850]: 103%; for `O=C(CSc1nnc(-c2ccncc2)n1-c1ccccc1)N/N=C/c1coc2ccccc2c1=O` [CBK262866]: 101%; for `COc1ccc(OC)c(C(O)c2nc3ccccc3n2C(C)C)c1` (stereo not shown) [CBK263474]: 92.7%. Same read-out and setting: the same measure for `Cc1nc(C)c(-c2csc(CC(C)n3cc(Cl)cn3)n2)o1` (stereo not shown) [CBK304710]: 106%; for `CN1CCN(c2cc(N3CCN(C(=O)c4ccc(F)cc4F)CC3)c([N+](=O)[O-])cc2F)CC1` [CBK265280]: 95.1%. As to `Cc1noc(C)c1CN1CCN(CC(CC(=O)Nc2ccc(F)cc2)C(=O)O)CC1` (stereo not shown) [CBK286821], the viability at 28.5 h, 10 µM came to 90.5%. On to `O=C1NC(=O)C(CCc2ccccn2)(CCc2ccccn2)C(=O)N1c1cccc(C(F)(F)F)c1` [CBK269021], for which the viability at 28.5 h, 10 µM (bulk resorufin, single well) was found to be 99.8%.

For `Cc1cc(Cc2cnc(NC(=O)c3ccncc3)s2)ccc1Br` [CBK298304], the viability at 28.5 h, 10 µM came to 106%.

Turning to `O=C(NCc1ccc(Cl)cc1)c1cc(-c2ccc(F)cc2)nc2ccccc12` [CBK294451], the viability at 28.5 h, 10 µM came to 111%.

Consider `O=C(O)c1ccc(/C=C/C(=O)c2ccc3c(c2)OCCO3)cc1` [CBK262173], for which the viability at 28.5 h, 10 µM turned out to be 89.1%. In the case of `Cc1cccnc1NC(=O)COc1ccc(Cl)cc1Cl` [CBK262154], the viability at 28.5 h, 10 µM is 86.5%. Same read-out and setting: the same measure for `CC1CCc2c(sc(NC(=O)c3cc(-c4cccnc4)nc4ccc(Cl)cc34)c2C(N)=O)C1` (stereo not shown) [CBK267762]: 104%; for `CCNC(=S)N1CCN(C(=O)c2cccc(OC)c2)CC1` [CBK154778]: 97.3%; for `O=C(Nc1ccc2ncccc2c1)c1cnc(-c2cccc(C(F)(F)F)c2)c(-c2cccnc2)c1` [CBK037591]: 89.9%. For the compound `O=C(Nc1cccc2cc[nH]c12)c1cccc(F)c1Cl` [CBK160074], the viability at 28.5 h, 10 µM turned out to be 99.8%. Still for that read-out and setting: the same measure for `CCOC1(c2ccccc2)N=C2C(Cl)=CC(C(F)(F)F)=CN2N=C1c1ccccc1` (stereo not shown) [CBK020634]: 91.4%.

For the compound `CC(C)c1cc2cc3ccc(=O)oc3cc2o1` [CBK033944], the viability at 28.5 h, 10 µM turned out to be 93.6%. For the compound `Nc1nnc(CSc2cccc3cccnc23)o1` [CBK021397], the viability at 28.5 h, 10 µM turned out to be 108%. For the compound `CCC(=O)N1CC[C@H]2NC(=O)c3ccccc3OCC/C=C/C[C@H]2C1` [CBK291999], the viability at 28.5 h, 10 µM is 91.3%. In the case of `c1ccc(-c2nc(N3CCOCC3)n3ccccc23)cc1` [CBK014407], the viability at 28.5 h, 10 µM amounted to 89.2%. `O=C(O)c1cccc(CSc2nc3ccccc3o2)c1` [CBK270193]: the viability at 28.5 h, 10 µM worked out at 91.7%. Same read-out and setting: under `O=C(c1ccccc1F)N1C[C@H](c2ccsc2)[C@H]2CN(Cc3ccccc3F)CC[C@H]21` [CBK285656] stands 97.4%. On the same count and under the same terms, the same measure for `CCc1nc(CC(=O)NC(C)C(O)c2ccc(F)cc2)cs1` (stereo not shown) [CBK304003]: 86.7%.
